Reference: ChEMBL document CHEMBL1139298, “Synthesis and biological evaluation of novel 2,4,5-substituted pyrimidine derivatives for anticancer activity” (Bioorg Med Chem Lett, 2009)

Experiments:
[1] = Cytotoxicity against human WI38 cells after 72 hrs by SRB assay; assay type: cell-based; conditions: WI-38, 72 h
[2] = system: Bel-7402; assay: Cytotoxicity against human Bel7402 cells after 72 hrs by SRB assay; assay type: functional, cell-based; conditions: Bel-7402, 72 h
[3] = system: NCI-H460; assay: Cytotoxicity against human NCI-H460 cells after 72 hrs by SRB assay; assay type: functional, cell-based; conditions: NCI-H460, 72 h
[4] = system: SGC-7901; assay: Cytotoxicity against human SGC7901 cells after 72 hrs by SRB assay; assay type: functional, cell-based; conditions: SGC-7901, 72 h
[5] = system: Calu-3; assay: Cytotoxicity against human Calu3 cells after 72 hrs by SRB assay; assay type: functional, cell-based; conditions: Calu-3, 72 h
[6] = system: HT-29; assay: cells; conditions: Homo sapiens, HT-29, 72 h
Description: Cytotoxicity against human HT-29 cells after 72 hrs by SRB assay

[7] = system: SK-BR-3; assay: Cytotoxicity against human SKBR3 cells after 72 hrs by SRB assay; assay type: functional, cell-based; conditions: SK-BR-3, 72 h

Row | Compound | IC50 [1] [µM] | IC50 [2] [µM] | also measured
1 | Cc1ncc(-c2ccc(N)cc2)c(-c2ccccc2O)n1 | > 10 | > 10 | 
2 | Cc1ncc(-c2ccccc2F)c(-c2ccccc2O)n1 | > 10 | > 10 | 
3 | Cc1ncc(-c2ccc(OC(F)(F)F)cc2)c(-c2ccccc2O)n1 | > 10 | > 10 | 
4 | Nc1ncc(-c2ccc(OCCCOCc3ccccc3)cc2)c(-c2ccccc2O)n1 | > 10 | > 10 | 
5 | Nc1ncc(-c2ccc(OC(F)(F)F)cc2)c(-c2ccccc2O)n1 | > 10 | > 10 | 
6 | Nc1ncc(-c2ccc(O)cc2)c(-c2ccccc2O)n1 | > 10 | > 10 | 
7 | COC(=O)c1ncc(-c2ccc(OC)cc2)c(-c2ccccc2O)n1 | > 10 | > 10 | 
8 | CNC(=O)c1ncc(-c2ccc(OC)cc2)c(-c2ccccc2O)n1 | > 10 | > 10 | 
9 | Cc1ncc(-c2cccc(C(F)(F)F)c2)c(-c2ccccc2O)n1 | > 10 | > 10 | 
10 | Cc1ncc(-c2ccc(Cl)cc2)c(-c2ccccc2O)n1 | > 10 | > 10 | 
11 | Cc1ncc(-c2ccc(NC(=O)OC(C)(C)C)cc2)c(-c2ccccc2O)n1 | > 10 | > 10 | 
12 | COc1cc(-c2cnc(C)nc2-c2ccccc2O)cc(OC)c1OC | > 10 | > 10 | 
13 | Nc1ncc(-c2ccccc2F)c(-c2ccccc2O)n1 | > 10 | > 10 | 
14 | COc1cc(-c2cnc(N)nc2-c2ccccc2O)cc(OC)c1OC | > 10 | > 10 | 
15 | Nc1ncc(-c2cccc(C(F)(F)F)c2)c(-c2ccccc2O)n1 | > 10 | > 10 | 
16 | Nc1ncc(-c2ccc(OCCN3CCCC3)cc2)c(-c2ccccc2O)n1 | > 10 | > 10 | 
17 | CC(=O)O[C@@]12CO[C@@H]1C[C@H](O)[C@@]1(C)C(=O)[C@H](O)C3=C(C)[C@@H](OC(=O)[C@H](O)[C@@H](NC(=O)OC(C)(C)C)c4ccccc4)C[C@@](O)([C@@H](OC(=O)c4ccccc4)[C@H]21)C3(C)C [DOCETAXEL] | > 10 |  | IC50 [3]: 0.0097 µM; IC50 [4]: 0.0084 µM; IC50 [5]: 0.1 µM
18 | COc1cccc2c1C(=O)c1c(O)c3c(c(O)c1C2=O)C[C@@](O)(C(=O)CO)C[C@@H]3O[C@H]1C[C@H](N)[C@H](O)[C@H](C)O1 [DOXORUBICIN] | > 10 | 0.021 | IC50 [6]: 0.018 µM
19 | CS(=O)(=O)CCNCc1ccc(-c2ccc3ncnc(Nc4ccc(OCc5cccc(F)c5)c(Cl)c4)c3c2)o1 [LAPATINIB] | > 10 |  | IC50 [7]: 0.017 µM
